Experimental findings from patent US20010047099A1, “4-aminopicolinates and their use as herbicides” (priority 2000, published 2001) are described below.

Common to all, as to assay type: in vivo
Test [1] concerns chickweed (Stellaria media). Put plainly: Postemergence herbicidal activity. Particulars: for inhibition at 125 ppm / pest or weed control at 125 ppm / pest or weed control at 250 ppm: Stellaria media, post-emergence, 336 h; for inhibition at 125 ppm: Table 2, read-out: POSTMERGENCE HERBICIDAL ACTIVITY % CONTROL STEME; for pest or weed control at 125 ppm / pest or weed control at 250 ppm: read-out: Post-emergent % Control STEME. In outline:
(§1)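 Spray rate conversion: 1 ppm ≈ 1 g/Ha. The test used greenhouse seedlings (first/second true leaf) treated with a serially diluted compound spray. Control plants received carrier only. Efficacy was taken as visual injury at 2 weeks on a 0–100% scale.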

Test [2] concerns cocklebur (Xanthium strumarium). The test can be described thus: Postemergence herbicidal activity. Particulars: Xanthium strumarium, post-emergence, 336 h; for inhibition at 125 ppm: Table 2, read-out: POSTMERGENCE HERBICIDAL ACTIVITY % CONTROL XANST; for pest or weed control at 125 ppm / pest or weed control at 250 ppm: read-out: Post-emergent % Control XANST; for pest or weed control at 250 ppm: rate 250 ppm. In outline:
as §1

In test [3] the test system is wild buckwheat (Polygonum convolvulus). Put plainly: Postemergence herbicidal activity. To be noted: for inhibition at 125 ppm / pest or weed control at 125 ppm / pest or weed control at 250 ppm: Fallopia convolvulus, post-emergence, 336 h; for inhibition at 125 ppm: Table 2, read-out: POSTMERGENCE HERBICIDAL ACTIVITY % CONTROL POLCO; for pest or weed control at 125 ppm / pest or weed control at 250 ppm: read-out: Post-emergent % Control POLCO. Summed up: as §1

Test [4] has as its system morningglory (Ipomoea hederacea). The test can be described thus: Preemergence herbicidal activity. Particulars: Ipomoea, 504 h, read-out: % Control IPOHE; for pest or weed control at 560 ppm: rate 560 ppm. In outline:
(§2)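 Pre-emergence soil spray; loam:sand 70:30, pH ~8.1. Vehicle: acetone/DMSO 97:3 stock diluted in water + 0.1% Tween 155; controls sprayed with aqueous mixture. Greenhouse 23-29° C day/22-28° C night, 15 hr photoperiod. Visual % injury vs untreated at 3 wk.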

Test [5] deals with pigweed (Amaranthus retroflexus). Put plainly: Preemergence herbicidal activity. To be noted: Amaranthus retroflexus, 504 h; for pest or weed control at 280 ppm / pest or weed control at 560 ppm: read-out: % Control AMARE; for inhibition at 35 g/ha: pre-emergence, Table 7, rate 35 g/Ha; for pest or weed control at 560 ppm: rate 560 ppm. In outline:
as §2

Test [6] deals with velvetleaf (Abutilon theophrasti). Put plainly: Preemergence herbicidal activity. To be noted: Abutilon theophrasti, 504 h; for pest or weed control at 280 ppm / pest or weed control at 560 ppm: read-out: % Control ABUTH; for inhibition at 35 g/ha: pre-emergence, Table 7, rate 35 g/Ha; for pest or weed control at 560 ppm: rate 560 ppm. In outline:
as §2

The subject of test [7] is field bindweed (Convolvulus arvensis). Put plainly: Range & Pasture Crop Testing (postemergence track sprayer). To be noted: for GR80 CONAR: Table 10, clover pasture, postemergence. Summed up: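 Postemergence track-sprayer application at 187 L/ha, compounds formulated in 97:3 acetone:DMSO with 0.25% X-77, five rates (X serially diluted to 1/16×). Visual percent control (0–100 scale, burn down) rated 3 weeks after treatment; GR50/GR80 derived by probit analysis.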

[8] abbreviates: Table 1, rate 125 ppm, visual, after 2 weeks.
Where [9] appears, read: Table 6 (headed Post-emergent; text: preemergence), rate 280 ppm, after 3 weeks.
Where [10] appears, read: after 3 weeks, read-out: PREEMERGENCE HERBICIDAL ACTIVITY % CONTROL AMARE.
[11] abbreviates: after 3 weeks, read-out: PREEMERGENCE HERBICIDAL ACTIVITY % CONTROL ABUTH.
[12] abbreviates: Table 1, rate 250 ppm, visual, after 2 weeks.
Where [13] appears, read: Table 6 (headed Post-emergent; text: preemergence), after 3 weeks.

Like-named read-outs stand apart in the source and are kept apart here.

With `Nc1cc(Cl)nc(C(=O)O)c1Cl` [Compound 1, 4-Amino-3,6-dichloropyridine-2-carboxylic acid], the inhibition at 125 ppm in test [1] (read-out: PO[…] % CONTROL STEME, rate 125 ppm, after 2 weeks) was 90%; in test [2] (read-out: PO[…] % CONTROL XANST, rate 125 ppm, after 2 weeks), 100%; in test [3] (read-out: PO[…] % CONTROL POLCO, rate 125 ppm, after 2 weeks) it was 100%. The pest or weed control at 125 ppm in test [1] amounted to 100%; in test [2], 95%; in test [3], 100%. Further, the pest or weed control at 280 ppm in test [4], in test [5] and in test [6] was 100% throughout. Also, the inhibition at 35 g/ha turned out to be 88% in test [5] (read-out: PR[…] % CONTROL AMARE, after 3 weeks) and 95% in test [6] (read-out: PR[…] % CONTROL ABUTH, after 3 weeks). Also, the “Post-emergent GR80 CONAR” value in test [7] (Table 8, salts of Compound 1, dose for 80 percent control) was 59 g/Ha.

On to `COC(=O)c1nc(Cl)cc(N)c1Cl` [Compound 3, methyl 4-amino-3,6-dichloropyridine-2-carboxylate], for which the pest or weed control at 125 ppm in test [1] (setting [8]), in test [2] (setting [8]) and in test [3] (setting [8]) was 100% each time. Also, the pest or weed control at 280 ppm in test [4] (setting [9]), in test [5] (setting [9]) and in test [6] (setting [9]) was 100% in each case. The results for the inhibition at 35 g/ha in test [5] (setting [10]) and in test [6] (setting [11]) were 90% and 95%, respectively. For the same compound, the “GR80 CONAR” value in test [7] is 127.7 g/ha.

Take `CCOC(=O)c1nc(Cl)cc(N)c1Cl` [Compound 4, ethyl 4-amino-3,6-dichloropyridine-2-carboxylate]: the pest or weed control at 125 ppm in test [1] (setting [8]), in test [2] (setting [8]) and in test [3] (setting [8]) was 100% each time. Besides, the inhibition at 125 ppm in test [1] (rate 125 ppm, after 2 weeks) came to 70%; in test [2] (rate 125 ppm, after 2 weeks), 100%; in test [3] (rate 125 ppm, after 2 weeks), 100%. The pest or weed control at 280 ppm in test [4] (setting [9]), in test [5] (setting [9]) and in test [6] (setting [9]) was 100% each time. Moreover, in test [7], the “GR80 CONAR” value was 59 g/ha.

With `Nc1cc(Br)nc(C(=O)O)c1Cl` [Compound 14, 4-Amino-6-bromo-3-chloropyridine-2-carboxylic acid], the pest or weed control at 250 ppm in test [1] (setting [12]) turned out to be 90%; in test [2] (Table 1, visual, after 2 weeks), 85%; in test [3] (setting [12]) it was 50%. Besides, the inhibition at 125 ppm was found to be 65% in test [1] (rate 125 ppm, after 2 weeks); 100% in test [2] (rate 125 ppm, after 2 weeks); 100% in test [3] (rate 125 ppm, after 2 weeks). For the same compound, in test [1] (Table 5, rate 250 ppm), the “Post-emergent Evaluation - % control STEME” value was 70%. Besides, the “Post-emergent Evaluation - % control POLCO” value in test [3] (Table 5, rate 250 ppm) turned out to be 90%. For the same compound, the pest or weed control at 560 ppm amounted to 100% in test [4] (setting [13]), 90% in test [5] (setting [13]) and 100% in test [6] (setting [13]). For the same compound, the inhibition at 35 g/ha in test [5] (setting [10]) and in test [6] (setting [11]) was 100% throughout.

With `Nc1c(F)c(Cl)nc(C(=O)O)c1Cl` [Compound 19, 4-Amino-3,6-dichloro-5-fluoropyridine-2-carboxylic acid], the results for the pest or weed control at 125 ppm in test [1] (setting [8]), in test [2] (setting [8]) and in test [3] (setting [8]) were 95%, 95% and 100%, respectively. For the same compound, the inhibition at 125 ppm came out at 60% in test [1] (rate 125 ppm, after 2 weeks); 95% in test [2] (rate 125 ppm, after 2 weeks); 100% in test [3] (rate 125 ppm, after 2 weeks). For the same compound, the pest or weed control at 560 ppm in test [4] (setting [13]), in test [5] (setting [13]) and in test [6] (setting [13]) was 100% throughout.

On to `COc1c(C(=O)O)nc(Br)c(Cl)c1N` [Compound 42, 4-Amino-6-bromo-5-chloro-3-methoxypyridine-2-carboxylic acid], for which the pest or weed control at 250 ppm came to 90% in test [1] (setting [12]); 85% in test [2] (Table 1, visual, after 2 weeks); 90% in test [3] (setting [12]). For the same compound, the pest or weed control at 560 ppm in test [4] (setting [13]), in test [5] (setting [13]) and in test [6] (setting [13]) was 100% throughout. In addition, the inhibition at 35 g/ha in test [5] (setting [10]) came out at 60%; in test [6] (setting [11]), 80%.
